Results from ChEMBL document CHEMBL4406913, “INCB050465 (Parsaclisib), a Novel Next-Generation Inhibitor of Phosphoinositide 3-Kinase Delta (PI3Kδ)” (ACS Med Chem Lett, 2019).
pIC50: −log10 of the molar value. The source made the active and inactive calls. The calls are words filed in the database; no cut-off is given here.

Assays:
[1] = system: Pfeiffer; test: Cytotoxicity against human Pfeiffer cells assessed as reduction in cell viability incubated for 4 days by [3H]-thymidine incorporation based liquid scintillation counter method; assay type: functional
[2] = molecular target: Phosphatidylinositol 4,5-bisphosphate 3-kinase catalytic subunit gamma isoform (Homo sapiens, UniProt P48736); test: Inhibition of PI3Kgamma (unknown origin) using D-myophosphatidylinositol 4,5-bisphosphate as substrate incubated for 120 mins by [gamma-33P]-ATP based scintillation counting method
Phosphatidylinositol 4,5-bisphosphate 3-kinase catalytic subunit gamma isoform, sequence (P48736 whole entry, canonical isoform): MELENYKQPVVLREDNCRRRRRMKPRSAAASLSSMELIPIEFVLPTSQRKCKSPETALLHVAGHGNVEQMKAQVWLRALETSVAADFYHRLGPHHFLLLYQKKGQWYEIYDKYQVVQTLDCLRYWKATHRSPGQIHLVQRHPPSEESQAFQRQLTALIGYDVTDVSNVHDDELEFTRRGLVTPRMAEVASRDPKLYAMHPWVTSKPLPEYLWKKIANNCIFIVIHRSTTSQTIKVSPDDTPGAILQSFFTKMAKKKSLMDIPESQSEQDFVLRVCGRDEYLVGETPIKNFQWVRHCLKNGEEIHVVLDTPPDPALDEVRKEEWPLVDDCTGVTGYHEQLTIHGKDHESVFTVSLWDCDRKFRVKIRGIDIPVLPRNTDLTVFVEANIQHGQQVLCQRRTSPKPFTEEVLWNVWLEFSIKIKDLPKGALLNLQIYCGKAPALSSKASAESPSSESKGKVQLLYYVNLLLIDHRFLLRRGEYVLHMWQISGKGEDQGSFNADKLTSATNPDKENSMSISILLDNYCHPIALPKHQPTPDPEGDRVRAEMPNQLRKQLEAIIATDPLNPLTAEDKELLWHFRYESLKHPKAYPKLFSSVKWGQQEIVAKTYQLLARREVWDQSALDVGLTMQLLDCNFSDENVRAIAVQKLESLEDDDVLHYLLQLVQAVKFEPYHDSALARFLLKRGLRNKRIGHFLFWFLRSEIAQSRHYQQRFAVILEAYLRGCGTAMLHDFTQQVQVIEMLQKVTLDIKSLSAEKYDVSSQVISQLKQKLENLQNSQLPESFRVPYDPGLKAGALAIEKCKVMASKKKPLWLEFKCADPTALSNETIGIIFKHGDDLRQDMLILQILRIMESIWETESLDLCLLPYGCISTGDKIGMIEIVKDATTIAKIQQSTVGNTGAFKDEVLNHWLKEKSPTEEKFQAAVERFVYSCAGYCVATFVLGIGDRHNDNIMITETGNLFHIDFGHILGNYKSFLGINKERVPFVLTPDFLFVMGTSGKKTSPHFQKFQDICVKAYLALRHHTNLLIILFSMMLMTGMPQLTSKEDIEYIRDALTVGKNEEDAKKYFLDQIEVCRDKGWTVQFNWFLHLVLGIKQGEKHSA

[3] = Clearance in rat at 4 mg/kg, iv measured for 24 hrs by LC-MS/MS analysis; assay type: ADME, organism-based; conditions: in vivo
[4] = Volume of distribution at steady state in Beagle dog at 2 mg/kg, iv measured for 24 hrs by LC-MS/MS analysis; assay type: ADME, organism-based, Canis lupus familiaris; conditions: in vivo, read-out: Vdss
[5] = Volume of distribution at steady state in cynomolgus monkey at 2 mg/kg, iv measured for 24 hrs by LC-MS/MS analysis; assay type: ADME, organism-based, Macaca fascicularis; conditions: in vivo, read-out: Vdss
[6] = molecular target: T1, Cytochrome P450 2B6 (Homo sapiens, UniProt P20813); test: Inhibition of CYP2B6 in human liver microsomes at 0.1 to 25 uM using bupropion as substrate by LC/MS analysis; assay type: ADME
T1 sequence (P20813 whole entry): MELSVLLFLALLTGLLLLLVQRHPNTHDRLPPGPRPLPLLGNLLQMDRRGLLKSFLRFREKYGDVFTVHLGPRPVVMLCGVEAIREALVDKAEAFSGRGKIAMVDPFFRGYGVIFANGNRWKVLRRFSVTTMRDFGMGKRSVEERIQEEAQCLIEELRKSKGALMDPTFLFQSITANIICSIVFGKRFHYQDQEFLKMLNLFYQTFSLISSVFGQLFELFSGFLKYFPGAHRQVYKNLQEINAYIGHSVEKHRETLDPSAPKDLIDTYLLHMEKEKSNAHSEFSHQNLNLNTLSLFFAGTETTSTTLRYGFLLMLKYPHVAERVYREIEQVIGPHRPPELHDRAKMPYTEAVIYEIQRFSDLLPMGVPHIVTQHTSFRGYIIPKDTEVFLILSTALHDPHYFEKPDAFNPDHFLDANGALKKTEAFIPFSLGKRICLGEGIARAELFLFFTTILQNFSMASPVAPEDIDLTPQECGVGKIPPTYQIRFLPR

[7] = molecular target: T2, Cytochrome P450 2C8 (Homo sapiens, UniProt P10632); test: Inhibition of CYP2C8 in human liver microsomes at 0.1 to 25 uM using amodiaquine as substrate by LC/MS analysis; assay type: ADME
T2 sequence (P10632 whole entry): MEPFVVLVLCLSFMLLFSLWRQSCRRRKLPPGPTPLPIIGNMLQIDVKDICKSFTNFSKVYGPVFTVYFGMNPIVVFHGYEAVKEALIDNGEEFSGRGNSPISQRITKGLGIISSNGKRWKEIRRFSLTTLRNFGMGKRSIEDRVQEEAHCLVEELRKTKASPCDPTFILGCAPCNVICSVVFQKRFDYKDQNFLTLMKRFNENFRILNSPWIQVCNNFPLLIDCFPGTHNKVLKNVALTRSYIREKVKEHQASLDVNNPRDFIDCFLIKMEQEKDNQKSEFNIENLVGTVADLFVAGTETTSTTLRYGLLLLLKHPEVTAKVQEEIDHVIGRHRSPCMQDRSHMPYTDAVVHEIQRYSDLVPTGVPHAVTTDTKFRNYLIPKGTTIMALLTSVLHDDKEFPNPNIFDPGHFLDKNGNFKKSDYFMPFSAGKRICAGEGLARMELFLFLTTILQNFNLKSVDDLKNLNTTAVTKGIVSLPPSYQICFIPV

[8] = molecular target: Cytochrome P450 2D6 (Homo sapiens, UniProt P10635); test: Inhibition of CYP2D6 in human liver microsomes using bufuralol as substrate by LC/MS analysis; assay type: ADME
Cytochrome P450 2D6, sequence (P10635 whole entry, canonical isoform): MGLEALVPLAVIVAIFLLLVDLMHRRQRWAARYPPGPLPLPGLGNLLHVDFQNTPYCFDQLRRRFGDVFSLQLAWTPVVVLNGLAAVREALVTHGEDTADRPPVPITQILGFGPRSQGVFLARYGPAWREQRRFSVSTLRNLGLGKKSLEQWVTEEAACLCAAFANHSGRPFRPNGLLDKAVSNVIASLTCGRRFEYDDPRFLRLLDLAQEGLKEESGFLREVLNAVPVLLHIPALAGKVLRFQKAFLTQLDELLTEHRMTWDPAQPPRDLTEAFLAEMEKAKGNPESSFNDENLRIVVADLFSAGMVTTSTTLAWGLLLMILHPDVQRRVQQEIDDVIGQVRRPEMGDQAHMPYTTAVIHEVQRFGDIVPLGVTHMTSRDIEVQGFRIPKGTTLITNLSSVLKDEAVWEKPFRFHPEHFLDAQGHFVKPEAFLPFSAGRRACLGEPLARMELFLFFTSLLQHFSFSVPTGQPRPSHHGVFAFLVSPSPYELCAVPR

[9] = molecular target: T3, Phosphatidylinositol 4,5-bisphosphate 3-kinase catalytic subunit delta isoform (Homo sapiens) (UniProt O00329)
T3 sequence (whole entry): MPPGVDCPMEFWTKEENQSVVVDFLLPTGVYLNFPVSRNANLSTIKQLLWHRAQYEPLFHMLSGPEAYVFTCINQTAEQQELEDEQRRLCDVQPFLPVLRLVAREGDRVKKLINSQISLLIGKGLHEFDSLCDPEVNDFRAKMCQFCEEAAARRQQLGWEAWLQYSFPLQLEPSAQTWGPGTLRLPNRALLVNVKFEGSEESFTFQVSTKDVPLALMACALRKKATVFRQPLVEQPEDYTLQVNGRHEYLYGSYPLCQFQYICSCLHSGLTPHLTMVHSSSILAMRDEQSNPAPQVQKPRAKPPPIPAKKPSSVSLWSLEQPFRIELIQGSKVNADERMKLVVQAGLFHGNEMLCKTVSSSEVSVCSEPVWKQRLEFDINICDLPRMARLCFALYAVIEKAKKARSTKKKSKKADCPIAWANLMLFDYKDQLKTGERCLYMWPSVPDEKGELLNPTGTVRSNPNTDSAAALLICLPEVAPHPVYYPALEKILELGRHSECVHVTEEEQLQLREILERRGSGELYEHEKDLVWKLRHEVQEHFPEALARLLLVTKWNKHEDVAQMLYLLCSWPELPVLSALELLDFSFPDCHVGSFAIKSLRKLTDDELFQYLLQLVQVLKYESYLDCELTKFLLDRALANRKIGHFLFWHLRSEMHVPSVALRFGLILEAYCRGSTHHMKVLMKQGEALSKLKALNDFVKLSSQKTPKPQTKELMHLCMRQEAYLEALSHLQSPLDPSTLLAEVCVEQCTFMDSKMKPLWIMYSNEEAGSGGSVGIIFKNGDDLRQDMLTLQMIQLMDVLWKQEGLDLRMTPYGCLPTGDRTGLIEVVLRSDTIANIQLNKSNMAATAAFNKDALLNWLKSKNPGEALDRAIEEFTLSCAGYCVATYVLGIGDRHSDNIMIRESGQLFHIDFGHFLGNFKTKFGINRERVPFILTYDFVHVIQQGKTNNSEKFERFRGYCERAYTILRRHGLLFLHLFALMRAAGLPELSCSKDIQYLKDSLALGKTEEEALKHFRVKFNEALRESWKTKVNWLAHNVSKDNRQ
Description: Inhibition of PI3Kdelta (unknown origin) using D-myophosphatidylinositol 4,5-bisphosphate as substrate incubated for 120 mins by [gamma-33P]ATP based SPA assay

In the case of `CCOc1c([C@H](C)n2nc(C)c3c(N)ncnc32)cc(Cl)c(F)c1[C@@H]1CNC(=O)C1` [PARSACLISIB], the pIC50 [1] was 8.60, the pIC50 [2] was under 5.00 and the CL [3] was 26%. For the same compound, the Vd [4] was 0.32 L/kg, the Vd [5] was 0.72 L/kg and the “inhibition (INH)” value [6] was “Not Active”. The “inhibition (INH)” value [7] was “Not Active”, the “inhibition (INH)” value [8] was “Not Active” and the inhibition [9] was “inactive”.
